Assays:
PDHK2 = target: T1, PDHK2 (Homo sapiens, UniProt Q15119); experiment: Biochemical activity testing of PDHK2: PDC inactivation assay; conditions: human rec PDHK2, PDC from porcine heart, ATP 5 μM; read-out: IC50 PDHK2 (enzyme assay)
T1 construct: purchased Carna Bioscience
Method in brief: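 Human recombinant PDHK2 (137 nM final) preincubated 30 min at RT with porcine heart PDC (20 mU/ml) and compound in pH 7.0 phosphate buffer, then phosphorylated with 5 μM ATP for 30 min at 37 °C. Residual PDC activity read as NADH fluorescence increase (Ex 340/Em 450) over 45 min; inhibitor-free reaction as full value, 3 mM DCA as zero, IC50 derived.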

human PDHK2 (12-407) = target: T2, human PDHK2 (12-407) (Homo sapiens, UniProt Q15119); experiment: Isothermal titration calorimetry (ITC) binding; conditions: 30° C., pH 7.5
T2 construct: The human PDHK2 (12-407) was produced in E. coli; His-tag (cleaved yes); made in house; host or cells: E. coli
Method in brief: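 Untagged PDHK2 (12-407) from E. coli at 50 μM titrated into 5 μM compound at 30° C in pH 7.5 HEPES/KCl/MgCl2/phosphate buffer, ≤1% DMSO. One-site fit gave KA, ΔH^obs and N after heat-of-dilution correction; protein concentration referenced to a standard inhibitor and compound concentration adjusted to 1:1 stoichiometry.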

PDH-Elalpha (pSer300) = experiment: Cellular immunofluorescence assay in HEK293T cells; format: cell-based; conditions: Homo sapiens, HEK-293T, 5 hours incubation, anti-PDH-E1alpha pSer300 immunofluorescence, read-out: IC50 (cell data)
Method in brief: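 HEK293T cells were exposed to compound for 5 hours, then fixed, permeabilised and immunostained for PDH-Elalpha pSer300 with Hoechst counterstain, read by laser scanning cytometry. Percent effect was normalized to a pharmacological inhibitor control and fitted to dose-response curves.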

Row | Compound | IC50 (PDHK2) [nM] | Kd (human PDHK2 (12-407)) [nM] | IC50 (PDH-Elalpha (pSer300)) [nM]
1 | C[C@@](O)(C(=O)N1CCC(c2conc2-c2ccccc2)CC1)C(F)(F)F [Compound A128, (R)-3,3,3-Trifluoro-2-hydroxy-2-methyl-1-[4-(3-phenyl-isoxazol-4-yl)-piperidin-1-yl]-propan-1-one] | 300 to 3000 | < 300 | 3000 to 50000
2 | C[C@@](O)(C(=O)N1CCC(c2ccnn2C2CCOCC2)CC1)C(F)(F)F [Compound A116, (R)-3,3,3-Trifluoro-2-hydroxy-2-methyl-1-{4-[2-(tetrahydro-pyran-4-yl)-2H-pyrazol-3-yl]-piperidin-1-yl}-propan-1-one] | 300 to 3000 | 300 to 3000 | 3000 to 50000
3 | C[C@@](O)(C(=O)N1CCC(n2ccnc2-c2ccc(Cl)cc2)CC1)C(F)(F)F [Compound A62, (R)-1-{4-[2-(4-Chloro-phenyl)-imidazol-1-yl]-piperidin-1-yl}-3,3,3-trifluoro-2-hydroxy-2-methyl-propan-1-one] | < 300 | < 300 | 300 to 3000
4 | COc1ccc(-n2nncc2C2CCN(C(=O)[C@@](C)(O)C(F)(F)F)CC2)cc1 [Compound A57, (R)-3,3,3-Trifluoro-2-hydroxy-1-{4-[3-(4-methoxy-phenyl)-3H-[1,2,3]triazol-4-yl]-piperidin-1-yl}-2-methyl-propan-1-one] | 300 to 3000 | 300 to 3000 | 3000 to 50000
5 | C[C@@](O)(C(=O)N1CCC(c2ccnn2-c2ccccc2)CC1)C(F)(F)F [Compound A25, (R)-3,3,3-Trifluoro-2-hydroxy-2-methyl-1-[4-(2-phenyl-2H-pyrazol-3-yl)piperidin-1-yl]-propan-1-one] | 300 to 3000 | < 300 | 300 to 3000
